Results on 2 compounds are retold here after patent US9919998B2, “Antibacterial agents: Nα-aroyl-N-aryl-phenylalaninamides” (priority 2014, dated 2018).

As usually defined, the IC50 is the concentration needed to halve the response being measured. Broadly, the solubility is how much of the substance goes into solution per volume. Low readings indicate little dissolved substance, high ones much dissolved substance.

SMILES strings stand for the structures. Values after ≈ are worked out from the molar mass of the structure shown. Like-named read-outs stand apart in the source and are kept apart here. Bounds are passed on as bounds.

Series [1] relates to AAP1-resistant mutants, derivatives of M. smegmatis ATCC19420. Description: MICs in AAP1-resistant mutants (resistance and cross-resistance levels). The format is cell-based, Mycobacterium smegmatis.
In series [2] the test system is Mycobacterium smegmatis ATCC 19420. As to the kind of experiment: Broth microdilution MIC, M. smegmatis. The format is cell-based. The note with it: Mycolicibacterium smegmatis. The source says: (§1) MICs in Mycobacterium smegmatis ATCC 19420 and Mycobacterium smegmatis ATCC 19420 derivatives were quantified using broth microdilution assays as described [Clinical and Laboratory Standards Institute (CLSI/NCCLS) (2009) Methods for Dilution Antimicrobial Susceptibility Tests for Bacteria That Grow Aerobically; Approved Standard, Eighth Edition. CLIS Document M07-A8 (CLIS, Wayne Pa.)].

Series [3] concerns the target Mycobacterium tuberculosis RNA polymerase (Mycobacterium tuberculosis, UniProt P9WGY7+P9WGY9). Description: Run-off transcription assay with Mycobacterium tuberculosis RNA polymerase (radiochemical). The format is biochemical. Here is the method: Run-off transcription assays with Mycobacterium tuberculosis RNA polymerase were performed using reaction mixtures containing (10 μl): 0-100 μM test compound, 75 nM Mycobacterium tuberculosis RNA polymerase core enzyme, 300 nM Mycobacterium tuberculosis σ^A, 20 nM 130 bp DNA fragment containing positions −100 to −1 of the bacteriophage […] N25 promoter followed by positions +1 to +30 of the lacUV5-15 promoter of [Mukhopadhyay, J., Kapanidis, A., Mekler, V., Kortkhonjia, E., Ebright, Y., Ebright, R. (2001) Cell 106, 453-463], 25 nM [alpha-^32P]UTP (600 Bq/pmol) for an initial 2 min at 37° C. and 100 μM [alpha-^32P]UTP (6 Bq/pmol) for a subsequent 5 min at 37° C., 100 μM ATP, 100 μM GTP, 100 μM UTP, 100 μM CTP, 40 mM Tris-HCl, pH 8.0, 80 mM NaCl, 5 mM MgCl2, 2.5 mM DTT, and 12.7% glycerol. Reactions were terminated by addition of […] 80% formamide, 10 mM EDTA, 0.04% bromophenol blue, and 0.04% xylene cyanol, followed by heating for 5 min at 90° C. Reaction products were resolved by 15% urea-PAGE, and quantified using a storage-phosphor scanner.

Series [4] relates to Mycobacterium smegmatis ATCC 19420. As to the kind of experiment: Spontaneous resistance rate, fluctuation assays. It is filed as cell-based. The settings on record: 96 h fluctuation assays, M. smegmatis ATCC19420. On the procedure: Resistance rates were determined using fluctuation assays [Luria, S., Delbrück, M. (1943) Genetics 28, 491-511.]. […] (at least 3 independent determinations for each concentration of each test compound). Resistance rates and 95% confidence intervals were calculated using the Ma-Sandri-Sarkar Maximum Likelihood Estimator (MSS-MLE [Ma, W., Sandri, GvH., Sarkar, S. (1992.) J. Appl. Probab. 29, 255-267; Sarkar, S., Ma, W., Sandri, GvH. (1992) Genetica 85, 173-179]) as implemented on the Fluctuation Analysis Calculator (FALCOR; www.keshavsingh.org/protocols/FALCOR.html [Hall, B., Ma, C., Liang, P., Singh, K (2009) Bioinformatics 25, 1564-1565]). Sampling correction was performed as in [Stewart, F., Gordon, D., Levin, B. (1990) Genetics 124, 175-185; Jones, M. (1993) Mutat. Res. 292, 187-189].

Series [5] relates to Mycobacterium tuberculosis H37Rv. Description: Microplate Alamar Blue assay (MABA) MIC, M. tuberculosis. The format is cell-based. The source says:
(§2) Minimal inhibitory concentrations (MICs) in Mycobacterium tuberculosis H37Rv and Mycobacterium avium ATCC 25291 were quantified using microplate Alamar Blue assays as described (MABA; [Collins, L. & Franzblau, S. (1997) Microplate Alamar Blue assay versus BACTEC 460 system for high-throughput screening of compounds against Mycobacterium tuberculosis and Mycobacterium avium. Antimicrob. Agents Chemother. 41, 1004-1009]).
(In general: The colour change of resazurin is a common sign of viable cells or microbes.)

Series [6] concerns rifampin-resistant mutants, derivatives of M. smegmatis ATCC19420. Description: MICs in rifampin-resistant mutants (cross-resistance levels). It is filed as cell-based, Mycobacterium smegmatis.
Excerpt: as §1

Series [7] relates to Mycobacterium avium ATCC 25291. Description: Microplate Alamar Blue assay (MABA) MIC, M. avium. The note with it: ATCC25291, M. avium ATCC 25291. The format is cell-based.
Excerpt: as §2

For series [8], the system named is Vero E6 ATCC CRL1586 cells. Description: Mammalian-cell cytotoxicity, minimal cytotoxic concentration (CellTiter96). It is filed as cell-based. On the procedure: Minimal cytotoxic concentrations (MCCs) against mammalian cells in culture were determined using Vero E6 ATCC CRL1586 cells and the CellTiter96 assay kit (Promega, Inc.). […]
The target of series [9] is Escherichia coli RNA polymerase (Escherichia coli, UniProt P0A8T7+P0A8V2). As to the kind of experiment: Analogous run-off transcription assay with Escherichia coli RNA polymerase. It is filed as biochemical. The settings on record: run-off transcription assays with Escherichia coli RNA polymerase; read-out: IC50 for inhibition of Escherichia coli RNA polymerase.

Sequence of Mycobacterium tuberculosis RNA polymerase (P9WGZ1 whole entry, the tested form may be a part): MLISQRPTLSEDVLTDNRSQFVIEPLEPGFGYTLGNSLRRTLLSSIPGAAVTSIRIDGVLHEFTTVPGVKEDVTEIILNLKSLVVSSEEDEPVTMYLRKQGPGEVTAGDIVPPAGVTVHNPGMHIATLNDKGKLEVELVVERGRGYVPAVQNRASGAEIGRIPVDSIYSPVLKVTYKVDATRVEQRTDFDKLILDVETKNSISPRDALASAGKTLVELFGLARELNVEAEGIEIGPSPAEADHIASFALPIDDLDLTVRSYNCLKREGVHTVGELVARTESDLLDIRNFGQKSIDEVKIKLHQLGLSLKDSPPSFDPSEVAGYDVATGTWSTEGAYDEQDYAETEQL
Sequence of Mycobacterium tuberculosis RNA polymerase (P9WGY5 whole entry, further chain, the tested form may be a part): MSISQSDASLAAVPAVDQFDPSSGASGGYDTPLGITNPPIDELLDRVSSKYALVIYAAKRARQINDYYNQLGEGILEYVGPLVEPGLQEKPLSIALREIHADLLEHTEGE
Sequence of Mycobacterium tuberculosis RNA polymerase (P9WGY9 whole entry, the tested form may be a part): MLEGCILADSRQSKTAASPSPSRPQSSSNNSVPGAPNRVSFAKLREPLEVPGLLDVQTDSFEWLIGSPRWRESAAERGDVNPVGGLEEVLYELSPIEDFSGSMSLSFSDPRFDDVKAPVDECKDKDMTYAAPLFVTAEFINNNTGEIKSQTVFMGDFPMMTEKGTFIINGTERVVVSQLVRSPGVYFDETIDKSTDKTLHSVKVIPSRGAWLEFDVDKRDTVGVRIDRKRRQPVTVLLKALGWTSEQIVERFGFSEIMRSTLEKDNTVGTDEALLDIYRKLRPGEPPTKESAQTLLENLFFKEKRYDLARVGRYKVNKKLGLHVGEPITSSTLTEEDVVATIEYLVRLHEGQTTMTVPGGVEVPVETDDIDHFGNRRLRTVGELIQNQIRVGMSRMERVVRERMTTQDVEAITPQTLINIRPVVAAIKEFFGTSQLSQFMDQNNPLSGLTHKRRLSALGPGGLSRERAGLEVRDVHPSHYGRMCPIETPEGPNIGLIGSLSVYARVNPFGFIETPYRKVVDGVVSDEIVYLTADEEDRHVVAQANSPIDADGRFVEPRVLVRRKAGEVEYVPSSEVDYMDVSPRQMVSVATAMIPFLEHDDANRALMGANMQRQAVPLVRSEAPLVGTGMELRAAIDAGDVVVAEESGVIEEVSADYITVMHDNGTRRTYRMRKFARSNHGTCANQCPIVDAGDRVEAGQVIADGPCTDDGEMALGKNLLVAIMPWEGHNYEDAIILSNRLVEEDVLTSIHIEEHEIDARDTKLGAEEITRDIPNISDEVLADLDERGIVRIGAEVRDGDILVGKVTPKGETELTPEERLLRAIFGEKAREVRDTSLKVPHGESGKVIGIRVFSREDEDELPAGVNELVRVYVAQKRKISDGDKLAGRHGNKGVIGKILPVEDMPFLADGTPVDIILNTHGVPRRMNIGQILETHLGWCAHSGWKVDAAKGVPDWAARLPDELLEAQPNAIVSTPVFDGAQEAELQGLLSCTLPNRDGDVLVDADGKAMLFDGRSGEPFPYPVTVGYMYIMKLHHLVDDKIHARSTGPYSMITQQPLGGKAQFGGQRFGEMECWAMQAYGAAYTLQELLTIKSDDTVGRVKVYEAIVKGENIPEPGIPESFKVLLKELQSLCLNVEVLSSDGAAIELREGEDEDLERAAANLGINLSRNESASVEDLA
Sequence of Mycobacterium tuberculosis RNA polymerase (P9WGI1 whole entry, further chain, the tested form may be a part): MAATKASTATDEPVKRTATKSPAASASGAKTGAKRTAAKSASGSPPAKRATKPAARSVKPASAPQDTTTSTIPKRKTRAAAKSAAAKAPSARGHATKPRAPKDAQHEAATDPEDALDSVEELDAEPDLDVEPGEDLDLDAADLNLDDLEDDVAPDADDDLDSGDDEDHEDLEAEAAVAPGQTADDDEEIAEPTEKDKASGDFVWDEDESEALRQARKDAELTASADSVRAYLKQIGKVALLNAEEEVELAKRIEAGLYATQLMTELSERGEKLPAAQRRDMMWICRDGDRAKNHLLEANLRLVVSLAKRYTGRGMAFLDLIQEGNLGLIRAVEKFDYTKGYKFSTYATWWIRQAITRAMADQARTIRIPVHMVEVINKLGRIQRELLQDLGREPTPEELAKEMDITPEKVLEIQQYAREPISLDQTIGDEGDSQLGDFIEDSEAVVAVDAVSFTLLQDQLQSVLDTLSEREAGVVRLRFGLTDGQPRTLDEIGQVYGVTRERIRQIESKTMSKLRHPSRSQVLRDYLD
Sequence of Mycobacterium tuberculosis RNA polymerase (P9WGY7 whole entry, the tested form may be a part): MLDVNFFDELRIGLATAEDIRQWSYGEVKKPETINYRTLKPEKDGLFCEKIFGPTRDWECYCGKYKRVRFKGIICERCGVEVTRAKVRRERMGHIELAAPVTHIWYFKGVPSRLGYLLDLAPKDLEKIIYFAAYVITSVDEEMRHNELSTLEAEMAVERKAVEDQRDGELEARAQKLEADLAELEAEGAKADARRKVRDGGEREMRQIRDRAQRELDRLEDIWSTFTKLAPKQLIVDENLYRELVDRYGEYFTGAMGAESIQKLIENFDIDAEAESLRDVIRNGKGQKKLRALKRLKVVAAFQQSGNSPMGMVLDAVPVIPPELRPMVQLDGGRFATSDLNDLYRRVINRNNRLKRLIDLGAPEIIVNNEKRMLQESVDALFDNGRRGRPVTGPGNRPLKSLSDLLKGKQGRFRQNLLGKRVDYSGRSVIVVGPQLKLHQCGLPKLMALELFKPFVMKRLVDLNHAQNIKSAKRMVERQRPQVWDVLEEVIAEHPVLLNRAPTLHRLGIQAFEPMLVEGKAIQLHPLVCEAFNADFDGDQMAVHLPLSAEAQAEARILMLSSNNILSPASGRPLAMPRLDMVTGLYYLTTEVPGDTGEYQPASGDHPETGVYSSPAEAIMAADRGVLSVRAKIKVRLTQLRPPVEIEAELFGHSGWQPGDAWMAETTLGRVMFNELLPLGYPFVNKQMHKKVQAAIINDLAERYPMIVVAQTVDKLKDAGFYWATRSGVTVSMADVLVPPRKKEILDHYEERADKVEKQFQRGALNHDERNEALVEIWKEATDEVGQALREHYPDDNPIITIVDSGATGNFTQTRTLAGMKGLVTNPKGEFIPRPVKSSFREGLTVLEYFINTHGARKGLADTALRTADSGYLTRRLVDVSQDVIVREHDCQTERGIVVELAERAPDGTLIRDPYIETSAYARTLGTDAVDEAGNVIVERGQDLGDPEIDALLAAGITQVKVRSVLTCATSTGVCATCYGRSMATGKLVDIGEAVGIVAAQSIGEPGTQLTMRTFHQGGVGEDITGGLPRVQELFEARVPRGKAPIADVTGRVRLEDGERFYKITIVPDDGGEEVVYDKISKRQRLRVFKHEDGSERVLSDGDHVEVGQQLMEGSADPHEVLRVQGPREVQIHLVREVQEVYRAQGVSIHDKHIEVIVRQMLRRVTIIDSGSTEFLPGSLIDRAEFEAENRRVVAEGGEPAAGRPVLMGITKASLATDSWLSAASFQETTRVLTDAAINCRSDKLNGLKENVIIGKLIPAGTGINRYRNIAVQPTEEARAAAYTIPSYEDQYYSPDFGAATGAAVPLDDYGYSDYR

As for `Cc1ccccc1NC(=O)C(Cc1ccccc1)NC(=O)c1ccccc1` (racemic) [AAP1, Nα-benzoyl-N-(2-methylphenyl)-D/L-phenylalaninamide], the “resistance of tested AAP1-resistant mutants” value in series [1] (all tested AAP1-resistant mutants) is > 60 fold. In addition, the MIC in [2] (ATCC19420, broth microdilution assays, M. smegmatis ATCC19420, read-out: Inhibition of mycobacterial growth in culture (MICs)) stood at 0.39 µg/mL (≈ 1.09 µM); in [2] (ATCC19420, read-out: MIC with wild-type rpoB and wild-type rpoC, M. smegmatis ATCC19420 wild type, reference for AAP1-resistant mutants), 0.78 µg/mL (≈ 2.18 µM); in series [5] (MABA-MIC assays, read-out: Inhibition of mycobacterial growth in culture (MICs)) it was 6.25 µg/mL (≈ 17.4 µM). In addition, half-maximal inhibition in series [3] (Inhibition of mycobacterial RNA polymerase (IC50s), radiochemical transcription assays, M. tuberculosis RNA polymerase) (IC50) was put at 0.68 µM. Besides, in series [4] (2xMIC), the “spontaneous resistance rate at 2xMIC” value is 5 × 10^−9/generation. The “spontaneous resistance rate at 4xMIC” value in [4] (4xMIC) is given as 4 × 10^−9/generation. For the same compound, the “spontaneous resistance rate at 8xMIC” value in [4] (8xMIC) is given as 5 × 10^−9/generation. For the same compound, in [6], the “cross-resistance of rifampin-resistant mutants to the compound” value was “No rifampin-resistant mutant was found to exhibit cross-resistance”. Further, in [6], the “hypersensitivity of rifampin-resistant mutants to the compound” value was “One rifampin-resistant mutant was found to be hypersensitive”.

As to `O=C(NC(Cc1ccccc1)C(=O)Nc1cccc2[nH]ncc12)c1ccccc1` (stereo not shown) [IX-37, N-(1-((1H-indazol-4-yl)amino)-1-oxo-3-phenylpropan-2-yl)benzamide], in [1] (MICs in AAP1-resistant mutants), the “cross-resistance of AAP1-resistant mutants to the compound” value is recorded as “cross-resistance”. The MIC in series [7] turned out to be 12.5 µg/mL (≈ 32.5 µM); in series [2] (ATCC19420, M. smegmatis ATCC 19420, read-out: MIC Mycobacterium smegmatis ATCC 19420), 0.195 µg/mL (≈ 0.507 µM); in series [5] (read-out: MIC Mycobacterium tuberculosis H37Rv), 12.5 µg/mL (≈ 32.5 µM). Further, the “MCC mammalian cells Vero E6 ATCC CRL1586” value in series [8] is 55 µg/mL. Also, the results for the half-maximal inhibitory concentration (IC50) in [3] (IC50 Mycobacterium tuberculosis RNA polymerase) and in series [9] were 3.3 µM and 10 µM, respectively. For the same compound, in [6], the “cross-resistance of rifampin-resistant mutants to the compound” value is on record as “No rifampin-resistant mutant was found to exhibit cross-resistance”. The solubility in the series “physchem” is > 10 µM.
